Reference: the supplement of paper PMC10307832

Tests used:
Assay in all cases: relative viability (nuclei count vs DMSO), 5 days (fraction); higher = more cells survive
Decitabine + AZD7762 = compound: Nc1ncn([C@H]2C[C@H](O)[C@@H](CO)O2)c(=O)n1 [Decitabine] + NC(=O)Nc1cc(-c2cccc(F)c2)sc1C(=O)N[C@H]1CCCNC1 [AZD7762] (partner 0.2 µM)
How it was run: (§1)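 Dosing by pin tool came one day after lung cancer cell lines were seeded in 1536-well plates, using either one drug or a fixed anchor-drug dose plus five library-drug doses (not always all listed) in √10 steps. After 5 days, nuclei were counted on 4× images. Relative viability is treated-well nuclei count divided by vehicle-well nuclei count, and values are medians of duplicate plates.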

[1] = compound: O=C(C[C@H]1NCCC[C@@H]1O)Cn1cnc2cc(Br)c(Cl)cc2c1=O (racemic) [Halofuginone] + CCNC(=O)c1noc(-c2cc(C(C)C)c(O)cc2O)c1-c1ccc(CN2CCOCC2)cc1 [Luminespib] (partner 0.01 µM)
How it was run: as §1

[2] = compound: O=C(C[C@H]1NCCC[C@@H]1O)Cn1cnc2cc(Br)c(Cl)cc2c1=O (racemic) [Halofuginone] + C[C@@H](Oc1cc(-c2cnn(C3CCNCC3)c2)cnc1N)c1c(Cl)ccc(F)c1Cl [Crizotinib] (partner 1 µM)
How it was run: as §1

Halofuginone + Dasatinib = compound: O=C(C[C@H]1NCCC[C@@H]1O)Cn1cnc2cc(Br)c(Cl)cc2c1=O (racemic) [Halofuginone] + Cc1nc(Nc2ncc(C(=O)Nc3c(C)cccc3Cl)s2)cc(N2CCN(CCO)CC2)n1 [Dasatinib] (partner 0.075 µM)
How it was run: as §1

Cell Line | relative viability (Decitabine + AZD7762; first compound 0.04 µM) | relative viability (Decitabine + AZD7762; first compound 0.1265 µM) | relative viability (Decitabine + AZD7762; first compound 0.4 µM) | relative viability (Decitabine + AZD7762; first compound 1.265 µM) | relative viability (Decitabine + AZD7762; first compound 4 µM) | relative viability ([1]; first compound 0.001 µM) | relative viability ([1]; first compound 0.003162 µM) | relative viability ([1]; first compound 0.01 µM) | relative viability ([1]; first compound 0.03162 µM) | relative viability ([1]; first compound 0.1 µM) | relative viability ([2]; first compound 0.001 µM) | relative viability ([2]; first compound 0.003162 µM) | relative viability ([2]; first compound 0.01 µM) | relative viability ([2]; first compound 0.03162 µM) | relative viability ([2]; first compound 0.1 µM) | relative viability (Halofuginone + Dasatinib; first compound 0.001 µM) | relative viability (Halofuginone + Dasatinib; first compound 0.003162 µM) | relative viability (Halofuginone + Dasatinib; first compound 0.01 µM) | relative viability (Halofuginone + Dasatinib; first compound 0.03162 µM) | relative viability (Halofuginone + Dasatinib; first compound 0.1 µM)
NCI-H358 | 0.554 | 0.527 | 0.413 | 0.272 | 0.328 | 0.306 | 0.455 | 0.229 | 0.205 | 0.154 | 0.832 | 0.678 | 0.467 | 0.253 | 0.0914 | 0.175 | 0.188 | 0.115 | 0.0901 | 0.0916
NCI-H2087 | 0.853 | 0.719 | 0.58 | 0.493 | 0.499 | 0.179 | 0.152 | 0.178 | 0.174 | 0.134 | 0.738 | 0.902 | 0.77 | 0.851 | 0.851 | 0.834 | 1.16 | 0.9 | 0.808 | 0.522
LCLC-97TM1 | 0.0916 | 0.108 | 0.0741 | 0.102 | 0.0907 | 0.741 | 0.801 | 0.905 | 0.791 | 0.854 | 0.394 | 0.297 | 0.31 | 0.266 | 0.237 | 0.78 | 0.902 | 0.775 | 0.826 | 0.775
NCI-H1993 | 0.654 | 0.796 | 0.644 | 0.641 | 0.703 | 1 | 1.05 | 0.699 | 0.863 | 0.682 | 1.05 | 0.921 | 0.95 | 0.89 | 0.588 | 0.619 | 0.558 | 0.562 | 0.532 | 0.434
NCI-H1437 | 1.1 | 0.962 | 0.758 | 0.61 | 0.391 | 1.12 | 1.1 | 1.1 | 1.04 | 0.879 | 0.935 | 0.918 | 0.807 | 0.73 | 0.841 | 0.377 | 0.445 | 0.431 | 0.364 | 0.285
LC-2-ad | 0.769 | 0.846 | 0.925 | 0.491 | 0.63 | 1.08 | 1 | 0.848 | 1.01 | 0.326 | 0.555 | 0.472 | 0.431 | 0.516 | 0.439 | 0.711 | 0.517 | 0.511 | 0.565 | 0.209
HARA | 0.353 | 0.464 | 0.165 | 0.203 | 0.315 | 0.311 | 0.786 | 0.635 | 0.679 | 0.429 | 1.17 | 1.05 | 0.985 | 1.05 | 0.943 | 0.273 | 0.225 | 0.304 | 0.276 | 0.191
NCI-H650 | 0.775 | 0.618 | 0.427 | 0.388 | 0.346 | 0.793 | 0.738 | 0.822 | 0.667 | 0.59 | 0.77 | 0.714 | 0.73 | 0.604 | 0.344 | 0.528 | 0.478 | 0.47 | 0.452 | 0.367
